Patent US10086074B2, “Compositions and method for light triggered release of materials from nanovesicles” (The Research Foundation for The State University of New York, priority 2012, dated 2018)

Test system: Panc-1 xenografts
Experiment: Liposomal release from tumors following intratumoral administration
Type: in vivo, nude mice
Details: 2 hours following injection, 5 nmol
Experimental: FIG. 13. Example of spatial and temporal control of PoP-liposome permeabilization a) Spatial control of B. subtilis killing with triggered antibiotic release. Gentamicin was loaded in PoP-liposomes and embedded in hot agar along with the bacteria. The indicated spot was irradiated with a 658 nm laser (200 mW/cm^2) for 10 minutes and the plates were photographed 24 hours later. b) Temporal control of cargo release in Panc-1 xenografts. Mice were imaged following intratumoral injection of 5 nmol of either free sulforhodamine B or sulforhodamine B entrapped at self-quenching concentrations in PoP-liposomes. Representative images are shown of the indicated time points and conditions. Laser activation was performed after 2 hours. Representative results shown with n=3 mice per treatment group.
Liposomal release from tumors following intratumoral administration: Panc-1 tumors were grown by injecting 20 g female nude mice (Charles River) with 3×10^6 Panc-1 cells in a 1:1 matrigel dilution (BD Biosciences) in the hind flank of the mice. Following several weeks of growth, the tumors were carefully injected intratumorally with sulforhodamine B-PoP-liposomes. Images were acquired with an in vivo fluorescence imager (IVIS Lumina II) at the indicated time points with the mice under isoflurane-induced anesthesia. […]

CCN(CC)c1ccc2c(-c3ccc(S(=O)(=O)O)cc3S(=O)(=O)[O-])c3ccc(=[N+](CC)CC)cc-3oc2c1 [free rhodamine, sulforhodamine B]
fluorescence in tumor after intratumoral injection: little fluorescence remaining in the tumor
